Source: patent US12697411B2, “In-situ film-forming composition” (priority 2021, dated 2026)

Assay: Stability of the disinfectant (LAE) in contact with the polyamide lacquer, LC-MS of the film
Type: physicochemical
Details: Spray 1 (composition of Example 1) in polyamide-lacquered container, 3 months at 50° C.; LAE measured in film
Description: Besides, the stability of the disinfectant (LAE) present in the composition of Example 1 of the present invention in contact with the polyamide lacquer of the container was measured. Full containers loaded with Spray 1 of the present invention were controlled at 50° C. for 3 months, at 40° C. form 4 to 9 months, and at 30° C. from 6 to 18 months. After that time, the composition was applied to a surface to form the adherent film, in which the amount of LAE was calculated (mg of LAE/g of film).
The method for calculating the amount of LAE consists of a liquid chromatography-mass spectrometry (LC-MS) analysis of the tested sample previously sprayed into a container (glass flask) and dried into a rotary evaporator. The exact and constant weight of the residue is determined. This residue is dissolved in Acetonitrile and doped with a known volume solution of a solution f the internal pattern (Dodine, commercially available) in a known concentration. Then it is stirred and then, pure water at pH 3-4 (acidified with HCl) is added still flushing, this allows precipitating the polymer. The supernatant is filtered and punctured by LC-MS.
• Detector: ACQ-QDa mass Detector • Column: Kromasil 100-5-C18 150×4.0 mm. (5 μm, 100 Å) • System design: Mobil phase entrance-Column-PDA entrance-QDa entrance-Waste Exit
• Fluxe: 1.00 mL/min. […]

- reduction of the amount of disinfectant (LAE): about 11%
SMILES: CCCCCCCCCCCC(=O)N[C@@H](CCCN=C(N)N)C(=O)OCC.Cl [LAE, Ethyl lauroyl arginate hydrochloride salt]
